Laboratory results as given in US20080081829A1, “Medical Device Including an Anesthetic and Method of Preparation Thereof” (MED Institute, Inc, priority 2006, published 2008).
“Also recorded” adds a separate entry of the source. Counter-ions that a name gives are not always drawn. Like-named read-outs stand apart in the source and are kept apart here.

Columns and labels:
[1] = Elution of bupivacaine from spray-coated ureteral stents in aqueous buffers of different pH; assay type: physicochemical
Description: (§1) An approximately 0.6% solution of bupivacaine having a tertiary amine in the non-ionic form (formula (2a) above) in dichloromethane was loaded into a syringe mounted onto a syringe pump and connected to a tube that carried the solution to an ultrasonic nozzle (Model 06-05108—Sono-Tek Co., Poughkeepsie, N.Y. 12547.) A nozzle was 6 mm diameter, 11 mm long and used with a nominal frequency of 120 kHz. Air was purged from the solution line and the spray nozzle primed with the solution. The coating chamber was purged with nitrogen to attain an oxygen concentration below 100 ppm. The solution was sprayed onto ureteral stent substrates 20 to 280 mm long (polyurethane double pigtail soflex ureteral stent, Cook Incorporated (Bloomington, Ind.)). A smooth, uniform coating was observed. Control stents were coated with the same concentration of Bupivacaine.HCl using the above coating method.
The stents were placed in solutions at different pH values to test the elution of bupivacaine over time. […] Acetic acid/sodium acetate was used for the pH 4.5 buffer, 0.1 M phosphate-buffered solution (PBS) for the pH 7.0 buffer, and sodium carbonate for the pH 9.5 buffer.

[2] = Exposure of coated ureteral stent to water / aqueous environment (photomicrographs of coating); assay type: physicochemical
Description: as §1
(§2) FIGS. 4-7 depict photomicrographs of the coatings showing the uniformity and tenacity of the non-ionic coatings, in contrast to the water-soluble ionic coatings. […] FIG. 5 depicts a relatively rough, crystalline coating 91 of Bupivacaine.HCl on a ureteral stent 90, on the left, and the same stent after a one-minute ex vivo exposure to a pig ureter.
(§3) FIG. 7 then depicts the same type of stent 110 with a coating 114 of the non-ionic form of bupivacaine after 24 hours in an ex vivo test with a pig ureter.

[3] = Ex vivo exposure of coated ureteral stent to a pig ureter
Description: as §1, §2, §3

[4] = cited from earlier work
[5] = Table 1, anesthetics having protonated and unprotonated forms; cited from earlier work

| Compound | time of release/elution from coated stent ([1]; control stents coated with ionic form, aqueous solutions, same conditions, hydrochloride) | state of stent coating after dipping in water ([2]; dipped in water for one minute (FIG. 4)) | state of stent coating after ex vivo exposure to pig ureter ([3]; one-minute ex vivo exposure (FIG. 5)) | solubility in water (words) ([4]; hydrochloride) | solubility in water (words) ([4]; listed as bupivacaine hydrochloride, hydrochloride) | period over which release from ureteral stent occurs ([1]; coated polyurethane ureteral stent, solutions of pH 4.5, 7.0 and 9.5) | dependence of release rate on pH of the eluting solution ([1]; pH 4.5, 7.0, 9.5) | state of stent coating after exposure to aqueous environment ([2]; aqueous environment for several days (FIG. 6)) | state of stent coating after ex vivo test with pig ureter ([3]; 24 hours ex vivo (FIG. 7)) | pKa [5] | solubility ([4]; base or non-ionic form) | solubility in water (words) [4] | solubility in water (words) ([4]; listed as Bupivacaine) |
| --- | --- | --- | --- | --- | --- | --- | --- | --- | --- | --- | --- | --- | --- |
| CCCCN1CCCCC1C(=O)Nc1c(C)cccc1C (centres unmarked) [Bupivacaine.HCl, 1-butyl-N-(2,6-dimethylphenyl)-2-piperidinecarboxamide hydrochloride] | within a matter of minutes; also recorded: eluted fully within minutes | coating is substantially dissolved | Most of the coating 92 has been dissolved | water-soluble | soluble in water | – | – | – | – | – | – | – | – |
| CCCCN1CCCCC1C(=O)Nc1c(C)cccc1C (centres unmarked) [bupivacaine] | – | – | – | – | – | about 12 days | approximately the same rate | virtually no effect on the coating | most of the non-ionic form of the bupivacaine coating remains on the stent | 8.09 | about 0.2 mg/mL | only very slightly soluble in water | sparingly soluble in water |
| CCCN1CCCC[C@H]1C(=O)Nc1c(C)cccc1C [ropivacaine] | – | – | – | – | – | – | – | – | – | 8.16 | – | – | – |
